target: memapsin 2 (Homo sapiens, UniProt P56817); experiment: Inhibition of memapsin 2 beta-secretase activity (fluorogenic substrate FS-2); format: biochemical; conditions: memapsin 2, pH 4, 37° C., 20 minutes pre-incubation; read-out: M2Ki
Protocol: Potency of compounds were determined by measurement of their inhibition of memapsin 2 activity toward a fluorescent substrate. Kinetic inhibition experiments were performed using the procedure as described in Ermolieff, et al. (Biochemistry 39:12450-12456 (2000), the teachings of which are incorporated hereby in their entirety). Briefly, assays were performed at pH 4, 37° C., by pre-incubation of memapsin 2 enzyme with compound for 20 minutes. Activity measurements were initiated by addition of a fluorogenic substrate FS-2 (Bachem Americas, Torrance, Calif.) MCA-SEVNLDAEFR-DNP (SEQ ID NO.: 2). The substrate was derived from 10 amino acids of the human amyloid precursor protein (APP), with the Swedish variant amino acids at the beta-secretase cleavage site. The terminal amino acid was modified from arginine to lysine to facilitate derivatization with a functional group for detection by autofluorescence. The amino acid sequence of the “core” peptide of the substrate is SEVNLDAEFK (SEQ ID NO.: 3). The amino terminus was derivatized with (7-methoxycoumarin-4-yl)acetyl (MCA), and the epsilon amine of the lysine side chain of the terminal residue (K in sequence SEVNLDAEFK (SEQ ID NO.: 3)) was derivatized with 2,4-dinitorphenyl (DNP).
Fluorescent signal increase over time was measured as a rate of hydrolysis of the peptide substrate. Inhibition of hydrolytic rate was expressed relative to uninhibited controls and fit to a model for tight-binding inhibitors (J. Bieth, in “Proteinase Inhibitors,” Bayer Symposium V, 463-469, 1974, which is herein incorporated by reference for all purposes in its entirety).

Sequence of memapsin 2 (P56817 46-501): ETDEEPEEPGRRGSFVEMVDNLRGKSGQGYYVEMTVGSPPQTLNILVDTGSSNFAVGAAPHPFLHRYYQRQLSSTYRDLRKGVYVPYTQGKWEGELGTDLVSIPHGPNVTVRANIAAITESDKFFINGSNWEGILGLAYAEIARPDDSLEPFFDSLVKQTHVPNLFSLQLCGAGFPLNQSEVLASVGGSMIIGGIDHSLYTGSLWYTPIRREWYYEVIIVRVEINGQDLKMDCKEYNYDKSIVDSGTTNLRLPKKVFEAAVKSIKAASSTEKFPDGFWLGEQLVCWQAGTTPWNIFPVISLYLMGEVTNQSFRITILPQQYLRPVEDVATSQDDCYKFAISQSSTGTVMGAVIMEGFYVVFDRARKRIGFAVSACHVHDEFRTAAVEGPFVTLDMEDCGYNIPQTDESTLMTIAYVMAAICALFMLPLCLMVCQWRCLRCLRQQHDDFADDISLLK

Ki	Structure (SMILES)
> 0.501 µM	Cc1csc(CNC(=O)c2cccc(C(=O)N[C@@H](Cc3ccccc3)[C@H](O)CNCc3ccc(CS(C)(=O)=O)c(C)n3)c2)n1 [Compound 101, N1-((2S,3R)-3-hydroxy-4-((6-methyl-5-(methylsulfonylmethyl)pyridin-2-yl)methylamino)-1-phenylbutan-2-yl)-N3-((4-methylthiazol-2-yl)methyl)isophthalamide]
> 0.501 µM	COc1cccc(CNC[C@@H](O)[C@H](Cc2ccccc2)NC(=O)c2cc(C(=O)NCc3nccc(C)n3)cc(N(C)S(C)(=O)=O)c2)c1 [Compound 105, N1-((2S,3R)-3-hydroxy-4-(3-methoxybenzylamino)-1-phenylbutan-2-yl)-5-(N-methylmethylsulfonamido)-N3-((4-methylpyrimidin-2-yl)methyl)isophthalamide]
0.301 to 0.5 µM	COc1cccc(CNC[C@@H](O)[C@H](Cc2ccccc2)NC(=O)c2cccc(C(=O)N(C)Cc3cccc(C)n3)c2)c1 [Compound 108, N1-((2S,3R)-3-hydroxy-4-(3-methoxybenzylamino)-1-phenylbutan-2-yl)-N3-methyl-N3-((6-methylpyridin-2-yl)methyl)isophthalamide]
< 0.3 µM	C[C@@H](NC(=O)c1cc(C(=O)N[C@@H](Cc2ccccc2)[C@H](O)CNCc2cc(C(C)(C)C)ccc2O[Si](C)(C)C(C)(C)C)cc(N(C)S(C)(=O)=O)c1)c1ccccc1 [Compound 109, N1-((2S,3R)-4-(5-tert-butyl-2-(tert-butyldimethylsilyloxy)benzylamino)-3-hydroxy-1-phenylbutan-2-yl)-5-(N-methylmethylsulfonamido)-N3-((R)-1-phenylethyl)isophthalamide]
0.301 to 0.5 µM	Cc1c(CNC[C@@H](O)[C@H](Cc2ccccc2)NC(=O)c2cc(C(=O)N[C@H](C)c3ccccc3)cc(N(C)S(C)(=O)=O)c2)cnn1C(C)(C)C [Compound 120, N1-((2S,3R)-4-((1-tert-butyl-5-methyl-1H-pyrazol-4-yl)methylamino)-3-hydroxy-1-phenylbutan-2-yl)-5-(N-methylmethylsulfonamido)-N3-((R)-1-phenylethyl)isophthalamide]
> 0.501 µM	COc1cccc(CNC[C@@H](O)[C@H](Cc2ccccc2)NC(=O)c2cc(NO)cc(C(=O)N[C@H](C)c3ccccc3)c2)c1 [Compound 123, N1-((2S,3R)-3-hydroxy-4-(3-methoxybenzylamino)-1-phenylbutan-2-yl)-5-(hydroxyamino)-N3-((R)-1-phenylethyl)isophthalamide]
> 0.501 µM	COc1cccc(CNC[C@@H](O)[C@H](Cc2ccccc2)NC(=O)c2cc(C(=O)NCc3cccc(C)n3)cc(N(C)S(C)(=O)=O)c2)c1 [Compound 127, N1-((2S,3R)-3-hydroxy-4-(3-methoxybenzylamino)-1-phenylbutan-2-yl)-5-(N-methylmethylsulfonamido)-N3-((6-methylpyridin-2-yl)methyl)isophthalamide]
> 0.501 µM	Cc1csc(CN(C)C(=O)c2cccc(C(=O)N[C@H](Cc3ccccc3)[C@@H](O)CNCc3cncc(C(C)C)c3)c2)n1 [Compound 128, N1-((2R,3S)-3-hydroxy-4-((5-isopropylpyridin-3-yl)methylamino)-1-phenylbutan-2-yl)-N3-methyl-N3-((4-methylthiazol-2-yl)methyl)isophthalamide]
< 0.3 µM	COCCn1ncc(CNC[C@@H](O)[C@H](Cc2ccccc2)NC(=O)c2cc(C(=O)N[C@H](C)c3ccccc3)cc(N(C)S(C)(=O)=O)c2)c1C [Compound 131, N1-((2S,3R)-3-hydroxy-4-((1-(2-methoxyethyl)-5-methyl-1H-pyrazol-4-yl)methylamino)-1-phenylbutan-2-yl)-5-(N-methylmethylsulfonamido)-N3-((R)-1-phenylethyl)isophthalamide]
> 0.501 µM	COCCn1ncc(CNC[C@@H](O)[C@H](Cc2ccccc2)NC(=O)c2cccc(C(=O)N(C)Cc3nc(C)cs3)c2)c1C [Compound 132, N1-((2S,3R)-3-hydroxy-4-((1-(2-methoxyethyl)-5-methyl-1H-pyrazol-4-yl)methylamino)-1-phenylbutan-2-yl)-N3-methyl-N3-((4-methylthiazol-2-yl)methyl)isophthalamide]
> 0.501 µM	COc1cccc(CNC[C@@H](O)[C@H](Cc2ccccc2)NC(=O)c2cccc(C(=O)N(C)Cc3nccc(C)n3)c2)c1 [Compound 136, N1-((2S,3R)-3-hydroxy-4-(3-methoxybenzylamino)-1-phenylbutan-2-yl)-N3-methyl-N3-((4-methylpyrimidin-2-yl)methyl)isophthalamide]
> 0.501 µM	C[C@@H](NC(=O)c1cc(C(=O)N[C@@H](Cc2ccccc2)[C@H](O)CNCc2cnn(C(C)(C)C)c2)cc(N(C)S(C)(=O)=O)c1)c1ccccc1 [Compound 138, N1-((2S,3R)-4-((1-tert-butyl-1H-pyrazol-4-yl)methylamino)-3-hydroxy-1-phenylbutan-2-yl)-5-(N-methylmethylsulfonamido)-N3-((R)-1-phenylethyl)isophthalamide]
> 0.501 µM	Cc1csc(CN(C)C(=O)c2cccc(C(=O)N[C@@H](Cc3ccccc3)[C@@H](O)CNCc3cncc(C(C)C)c3)c2)n1 [Compound 147, N1-((2S,3S)-3-hydroxy-4-((5-isopropylpyridin-3-yl)methylamino)-1-phenylbutan-2-yl)-N3-methyl-N3-((4-methylthiazol-2-yl)methyl)isophthalamide]
> 0.501 µM	Cc1csc(CN(C)C(=O)c2cccc(C(=O)N[C@H](Cc3ccccc3)[C@H](O)CNCc3cncc(C(C)C)c3)c2)n1 [Compound 151, N1-((2R,3R)-3-hydroxy-4-((5-isopropylpyridin-3-yl)methylamino)-1-phenylbutan-2-yl)-N3-methyl-N3-((4-methylthiazol-2-yl)methyl)isophthalamide]
< 0.3 µM	CCN(CC)c1cccc(CNC[C@@H](O)[C@H](Cc2ccccc2)NC(=O)c2cccc(C(=O)N(C)Cc3nc(C)cs3)c2)c1 [Compound 152, N1-((2S,3R)-4-(3-(diethylamino)benzylamino)-3-hydroxy-1-phenylbutan-2-yl)-N3-methyl-N3-((4-methylthiazol-2-yl)methyl)isophthalamide]
< 0.3 µM	Cc1csc(CN(C)C(=O)c2cccc(C(=O)N[C@@H](Cc3ccccc3)[C@H](O)CNCc3cc(C(C)C)cnc3C)c2)n1 [Compound 153, N1-((2S,3R)-3-hydroxy-4-((5-isopropyl-2-methylpyridin-3-yl)methylamino)-1-phenylbutan-2-yl)-N3-methyl-N3-((4-methylthiazol-2-yl)methyl)isophthalamide]
> 0.501 µM	Cc1csc(CN(C)C(=O)c2cccc(C(=O)N[C@@H](Cc3ccccc3)[C@H](O)CN(Cc3cnn(C)c3)Cc3cnn(C)c3)c2)n1 [Compound 156, N1-((2S,3R)-4-(bis((1-methyl-1H-pyrazol-4-yl)methyl)amino)-3-hydroxy-1-phenylbutan-2-yl)-N3-methyl-N3-((4-methylthiazol-2-yl)methyl)isophthalamide]
< 0.3 µM	Cc1csc(CN(C)C(=O)c2cccc(C(=O)N[C@@H](Cc3ccccc3)[C@H](O)CNC(C)c3cccc(C(F)F)c3)c2)n1 (stereo partly drawn) [Compound 157, N1-((2S,3R)-4-(1-(3-(difluoromethyl)phenyl)ethylamino)-3-hydroxy-1-phenylbutan-2-yl)-N3-methyl-N3-((4-methylthiazol-2-yl)methyl)isophthalamide]
< 0.3 µM	C=C(C)c1cc(O)cc(CNC[C@@H](O)[C@H](Cc2ccccc2)NC(=O)c2cccc(C(=O)N(C)Cc3nc(C)cs3)c2)c1 [Compound 159, N1-((2S,3R)-3-hydroxy-4-(3-hydroxy-5-(prop-1-en-2-yl)benzylamino)-1-phenylbutan-2-yl)-N3-methyl-N3-((4-methylthiazol-2-yl)methyl)isophthalamide]
< 0.3 µM	Cc1csc(CN(C)C(=O)c2cccc(C(=O)N[C@@H](Cc3ccccc3)[C@H](O)CNCc3cccc(C(C)O)c3)c2)n1 (stereo partly drawn) [Compound 160, N1-((2S,3R)-3-hydroxy-4-(3-(1-hydroxyethyl)benzylamino)-1-phenylbutan-2-yl)-N3-methyl-N3-((4-methylthiazol-2-yl)methyl)isophthalamide]
< 0.3 µM	COc1cccc(CNC[C@@H](O)[C@H](Cc2ccccc2)NC(=O)c2cc(C(=O)N(C)Cc3nc(C)cs3)cc(-c3ccncc3)c2)c1 [Compound 203, N1-((2S,3R)-3-hydroxy-4-(3-methoxybenzylamino)-1-phenylbutan-2-yl)-N3-methyl-N3-((4-methylthiazol-2-yl)methyl)-5-(pyridin-4-yl)isophthalamide]

same assay, conditions: memapsin 2, pH 4, 37° C., fluorogenic substrate FS-2; read-out: M2Ki

Ki	Structure (SMILES)
< 0.3 µM	Cc1csc(CN(C)C(=O)c2cc(C(=O)N[C@@H](Cc3ccccc3)[C@H](O)CNCc3cccc(C(F)(F)F)c3)cc(-c3cnco3)c2)n1 [Compound 219, N1-((2S,3R)-3-hydroxy-1-phenyl-4-(3-(trifluoromethyl)benzylamino)butan-2-yl)-N3-methyl-N3-((4-methylthiazol-2-yl)methyl)-5-(oxazol-5-yl)isophthalamide]
< 0.3 µM	Cc1csc(CN(C)C(=O)c2cccc(C(=O)N[C@@H](Cc3ccccc3)[C@H](O)CNCc3cc(-c4ccncc4)cc(C(F)(F)F)c3)c2)n1 [Compound 275, N1-((2S,3R)-3-hydroxy-1-phenyl-4-(3-(pyridin-4-yl)-5-(trifluoromethyl)benzylamino)butan-2-yl)-N3-methyl-N3-((4-methylthiazol-2-yl)methyl)isophthalamide]
